Laboratory results published in paper PMC3566091, “Binding of the Radioligand SIL23 to α-Synuclein Fibrils in Parkinson Disease Brain Tissue Establishes Feasibility and Screening Approaches for Developing a Parkinson Disease Imaging Agent” (PLoS ONE, 2013).
Where two headings read alike, the source gives them in different places.

Columns and labels:
Aβ plaques in AD brain [1] = settings: cited from earlier work
[2] = target: T1, recombinant α-syn fibrils (Homo sapiens, UniProt P37840); settings: read-out: Ki, α-Syn fibrils; 200 nM [125I]SIL23, 1 µM fibrils; Ki from EC50; 95% confidence interval in parentheses
Method: (§2) Purified recombinant α-syn monomer (2 mg/ml) was incubated in 20 mM Tris-HCl, pH 8.0, 100 mM NaCl for 72 h at 37°C with shaking at 1000 rpm in an Eppendorf Thermomixer. To determine the concentration of fibrils, the fibril reaction mix was centrifuged at 15,000×g for 15 min to separate fibrils from monomer. The concentration of α-syn monomer in the supernatant was determined in a BCA protein assay according to the manufacturer’s instructions, using a bovine serum albumin (BSA) standard curve. The measured decrease in α-syn monomer concentration was used to determine the concentration of fibrils in the 72 h fibril reaction mixture.
(§3) The prepared fibril mixture was centrifuged at 15,000×g for 15 min to prepare fibrils for binding assays.
(§4) Reactions were incubated at 37°C for 2 h before quantifying bound radioligand as described above for the saturation binding assay. All data points were performed in triplicate.

[3] = target: T2, Human PD brain homogenate (insoluble fraction) (Homo sapiens, UniProt P37840); settings: read-out: Ki, Human PD brain homogenate; 200 nM [125I]SIL23, 10 µg insoluble fraction/150 µl; 95% confidence interval in parentheses
Method: as §4

PD tissue = tested on: PD tissue; set-up: method as in PMID 19576880; settings: cited from earlier work
[4] = target: T1, recombinant α-syn fibrils; test: biochemical
Method: as §2, §3, §4

[5] = target: T2, Human PD brain homogenate (insoluble fraction); test: biochemical
Method: as §4

Aβ plaques in AD brain [6] = tested on: Aβ plaques in AD brain; set-up: method as in PMID 16291932; settings: cited from earlier work
synthetic Aβ1–42 fibrils [7] = target: T3, synthetic Aβ1–42 fibrils (Homo sapiens, UniProt P05067); test: biochemical
Method: (§5) Synthetic Aβ1–42 peptide (1 mg) (Bachem, Torrance, CA) was first dissolved in 50 µl DMSO. An additional 925 µl of mQ-H2O was added. […] The dissolved peptide was incubated for 30 h at 37°C with shaking at 1000 rpm in an Eppendorf Thermomixer. […] To determine the concentration of fibrils, the fibril reaction mix was centrifuged at 15,000×g for 15 min to separate fibrils from monomer. The concentration of Aβ monomer in the supernatant was determined in a BCA protein assay using a BSA standard curve that contained DMSO at a percentage equivalent to the samples.
as §3
Reactions were incubated at 37°C for 2 h before quantifying bound radioligand as described above for the saturation binding assay.

recombinant tau fibrils [8] = target: T4, recombinant tau fibrils (Homo sapiens, UniProt P10636); test: biochemical
Method: (§6) To determine the concentration of fibrils, the fibril reaction mixer was centrifuged at 15,000×g for 15 min to separate fibrils from monomer. The concentration of tau monomer in the supernatant was determined in a BCA protein assay along with a BSA standard curve. The measured decrease in monomer concentration was used to determine the concentration of tau fibrils in the 48 h fibril reaction mixture.
as §3, §4

[9] = tested on: insoluble fractions from control human brain tissue; test: [125I]SIL23 saturation binding to insoluble fractions of control brain tissue; settings: four control cases, listed as [^125I]SIL23
Method: Brain tissue samples were selected from an autopsy case series of patients evaluated for parkinsonism by movement disorders specialists at the Movement Disorders Center of Washington University School of Medicine in St. Louis. The clinical diagnosis of idiopathic PD was based on modified United Kingdom Parkinson’s Disease Society Brain Bank clinical diagnostic criteria with clear clinical response to levodopa. Dementia was determined by a movement disorders specialist based on clinical assessment of cognitive dysfunction sufficiently severe to impair activities of daily living, with further evaluation of cognitive impairment using the AD8 [20] and Mini-Mental Status Exam (MMSE). LB stage was assessed at autopsy using a PD staging scale (range: 0, 1–6). PD cases were selected based on a clinical diagnosis of PD plus dementia, Braak LB stage 5–6 pathology, and the absence of significant Aβ or tau pathology determined by immunohistochemistry. Control cases were selected based on the absence of α-syn, Aβ and tau pathology. Samples were used from both male and female subjects.
(§1) All data points were performed in triplicate.

[10] = tested on: crude PBS homogenate from control human brain; test: [125I]SIL23 saturation binding to crude control brain homogenate; settings: unfractionated PBS homogenate
Method: as §1

synthetic Aβ1–42 fibrils [11] = target: T3, synthetic Aβ1–42 fibrils
Method: as §5, §3

recombinant tau fibrils [12] = target: T4, recombinant tau fibrils
Method: as §6, §3

T3 sequence (P05067 672-713 limits assumed): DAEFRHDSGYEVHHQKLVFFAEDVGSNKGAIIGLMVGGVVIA
T4 sequence (P10636 560-692): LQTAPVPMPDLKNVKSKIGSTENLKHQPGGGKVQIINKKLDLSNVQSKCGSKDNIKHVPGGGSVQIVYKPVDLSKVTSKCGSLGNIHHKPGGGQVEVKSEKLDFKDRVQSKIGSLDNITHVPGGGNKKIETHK

Q: For CNc1ccc(/C=C/c2ccc(OCCOCCOCCF)nc2)cc1 [AV-45], which “average Bmax (binding site density) for AV-45 binding in AD brain” value (Aβ plaques in AD brain [1]; AD brain) is on record?
A: Its value is 8.8 pmol/mg protein.

Q: What about the Kd (Aβ plaques in AD brain [1]; read-out: Kd for AV-45 binding to Aβ plaques) of the same molecule?
A: Its Kd is 3.7 nM.

Q: With CN(C)c1ncc(/C=C/c2nc3ccc(OCCF)cc3o2)s1 [BF227] as the molecule, how does the Ki [2] read?
A: The Ki was 39.7 nM.

Q: What about the Ki [3] of the same molecule?
A: Its Ki is 138 nM.

Q: And the “radiolabeled BF227 binding in PD tissue” value (PD tissue)?
A: The value was “not detectable”.

Q: With O=C(O)c1cc(/N=N/c2ccc(-c3ccc(/N=N/c4ccc(O)c(C(=O)O)c4)cc3)cc2)ccc1O [Chrysamine G] as the molecule, how does the Ki [4] read?
A: The Ki was 432 nM.

Q: And the Ki [5]?
A: Its Ki is 367 nM.

Q: With CNc1ccc(-c2nc3ccc(O)cc3s2)cc1 [PiB, Pittsburgh Compound B] as the molecule, how does the “average Bmax (binding site density) for PiB binding in AD brain” value (Aβ plaques in AD brain [6]; AD brain) read?
A: Its value is 1407 pmol/g wet weight.

Q: And the Kd (Aβ plaques in AD brain [6]; read-out: Kd for PiB binding to Aβ plaques)?
A: Its Kd is 2.5 nM.

Q: And the Ki [4]?
A: The Ki was 116 nM.

Q: What about the Ki [5] of the same molecule?
A: The Ki was 99.2 nM.

Q: For O=[N+]([O-])c1ccc2c(c1)Sc1ccccc1N2 [SIL3B], which Ki (synthetic Aβ1–42 fibrils [7]) is on record?
A: The Ki was 71.5 nM.

Q: And the Ki (recombinant tau fibrils [8])?
A: Its Ki is 52.3 nM.

Q: With COc1ccc2c(c1)Sc1cc([N+](=O)[O-])ccc1N2 [SIL5] as the molecule, how does the Ki (synthetic Aβ1–42 fibrils [7]) read?
A: The Ki was 110 nM.

Q: For O=[N+]([O-])c1ccc2c(c1)Sc1cc(Br)ccc1N2 [SIL22], which Ki (synthetic Aβ1–42 fibrils [7]) is on record?
A: The Ki was 102 nM.

Q: What about the Ki (recombinant tau fibrils [8]) of the same molecule?
A: The Ki was 173 nM.

Q: For O=[N+]([O-])c1ccc2c(c1)Sc1cc(OC/C=C/I)ccc1N2 [SIL23], which “[125I]SIL23 binding in control cases” value [9] is on record?
A: The value was “no significant [^125I]SIL23 binding”.

Q: And the “[125I]SIL23 binding in crude homogenate of a control case” value [10]?
A: The value was “no significant binding”.

Q: What about the “[125I]SIL23 binding in crude homogenate of a control case” value ([10]; listed as [^125I]SIL23) of the same molecule?
A: The value was “No significant specific binding”.

Q: And the “Bmax of [125I]SIL23 binding to Aβ1–42 fibrils” value (synthetic Aβ1–42 fibrils [11])?
A: Its value is 23.7 pmol/nmol.

Q: What about the “Bmax of [125I]SIL23 binding to tau fibrils” value (recombinant tau fibrils [12]) of the same molecule?
A: The value was 4.57 pmol/nmol.
